This assay has as its system Alpha 3 Adrenergic Receptors. As to the kind of experiment: Rabbit Saphenous Vein: Alpha 3 Adrenergic Receptors. In kind it is cell-based, albino rabbit. The following applies: rabbit saphenous vein rings, 37° C., field stimulated; n = number of test runs. How it is done: The tetrahydroquinoxalines produced in Examples 1 to 3 were tested for activity using the following in vitro methods.
Rabbit Saphenous Vein: Alpha 3 Adrenergic Receptors
Thoracic aorta and saphenous vein specimens were obtained from albino rabbits that were killed by CO2 inhalation. The aorta and saphenous vein were each cut into 3 mm rings. Tissues were placed in Krebs-Hensleit solution of the following composition (millimolar): NaCl 119; KCl 4.7; MgSO4 1.5, KH2 PO4 1.2; CaCl2 2.5; NaHCO3 25 and glucose 11.0. The solution also contained cocaine (0.1 millimolar) to block neuronal uptake and EDTA (30 micromolar) and ascorbic acid (5 micromolar) to prevent oxidation of the tetrahydroquinoxaline being tested. Tissues were hung in 10 ml organ baths and tension was measured via Grass FT03 force-displacement transducers. Resting tension was 1 g and 2 g for the saphenous vein and aorta, respectively. The solution was gassed with 95% O2 and 5% CO2 and maintained at 37° C. Tissues were allowed to equilibrate for 2 hours before stimulation and the cumulative addition of the tetrahydroquinoxaline being treated was started. Tissue stimulation was performed as with the rabbit vas deferens, described above. The contractions of the tissue were recorded isometrically as for the rabbit vas deferens assay. […]

The structures appear in SMILES notation.

The record followed here is patent US5077292A, “(2-imidazolin-2-ylamino) tetrahydroquinoxalines and methods for using same” (priority 1989, dated 1991).

The EC50 is the concentration needed to bring the measured effect to its halfway point. Higher therefore signals lower potency in that assay. The molecule `Brc1c(NC2=NCCN2)ccc2c1NCCN2` [Example 1, 5-Bromo-6-(2-imidazolin-2-ylamino)-1,2,3,4-tetrahydroquinoxaline] showed an EC50 of 92 ± 19 nM.
